We go through four compounds from publication PMC3135573 (Analytical biochemistry, 2011).

Like-named read-outs stand apart in the source and are kept apart here. Marks after values point to notes of the source that are not given here.

Experiment [1] addresses T1, BioA (Mycobacterium tuberculosis, UniProt P9WQ81). The settings on record: biodisc assay ref 37; cited from earlier work.
Experiment [2] concerns the target T1, BioA. It counts as biochemical.
Experiment [3] addresses T1, BioA. The settings on record: cited from earlier work.

T1 sequence (P9WQ81 whole entry, looked up): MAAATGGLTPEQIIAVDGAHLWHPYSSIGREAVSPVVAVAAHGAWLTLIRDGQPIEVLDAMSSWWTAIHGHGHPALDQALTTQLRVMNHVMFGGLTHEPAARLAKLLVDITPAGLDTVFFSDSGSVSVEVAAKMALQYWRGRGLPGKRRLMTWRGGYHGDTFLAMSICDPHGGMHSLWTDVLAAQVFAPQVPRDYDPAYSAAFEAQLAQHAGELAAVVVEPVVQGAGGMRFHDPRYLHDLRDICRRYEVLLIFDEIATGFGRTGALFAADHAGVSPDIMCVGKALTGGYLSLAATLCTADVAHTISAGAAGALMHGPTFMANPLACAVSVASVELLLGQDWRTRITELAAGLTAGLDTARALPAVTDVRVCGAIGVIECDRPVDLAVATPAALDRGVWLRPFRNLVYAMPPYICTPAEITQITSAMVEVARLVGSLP

`C[S+](CC[C@H](N)C(=O)[O-])C[C@H]1O[C@@H](n2cnc3c(N)ncnc32)[C@H](O)[C@@H]1O` (stereo partly drawn) [SAM, S-adenosyl methionine]: the KmSAM in experiment [1] is on record as 1.4 ± 0.3 ^a mM; in experiment [2] (this study, 50 nM BioA, 12.5 μM KAPA, SAM 0.12–15 mM), 1.17 ± 0.06 mM.
With `C[C@@H](N)C(=O)CCCCCC(=O)O` [(R)-KAPA], in experiment [3], the “inhibition of BioA (in words)” value was “potent inhibitor of BioA”.
As for `C[C@H](N)C(=O)CCCCCC(=O)O.Cl` [KAPA, (S)-8-Amino-7-oxononanoic acid hydrochloride salt], the KmKAPA in experiment [1] was 1.3 ± 0.3 ^a μM; in experiment [2] (this study, 50 nM BioA, 5 mM SAM, KAPA 0–12.5 μM), 1.9 ± 0.1 µM.
Consider `O[C@@H](CS)[C@@H](O)CS` (racemic) [DTT, dithiothreitol], for which the “decrease of the initial velocity” value in experiment [2] (addition of 2 mM DTT) was found to be 18%.
